Patent publication US20130045991A1, “NEUROPROTECTIVE MODULATION OF NMDA RECEPTOR SUBTYPE ACTIVITIES” (THE UNIVERSITY OF BRITISH COLUMBIA, priority 2005, published 2013)
“Also recorded” adds a separate entry of the source.

Columns and labels:
[1] = system: NMDA receptors (NR2A- and NR2B-containing); assay: Whole-cell currents evoked by NMDA in cultured cortical neurons; type: cell-based, rat; conditions: for percentage blockade of NMDA-induced currents, applied alone: NVP-AAM077 0.4 μM or Ro25-6981 0.5 μM bath applied alone, 10 μM glycine, 5 μM strychnine, -60 mV; for percentage blockade of NMDA-induced currents, applied alone / percentage blockade of NMDA-induced currents, applied after blockade by the other antagonist: 50 μM NMDA; for percentage blockade of NMDA-induced currents, applied after blockade by the other antagonist: sequential application, NVP-AAM077 0.4 μM, Ro25-6981 0.5 μM
synaptic NMDA receptors = assay: mEPSC recording, NMDA receptor-mediated component; type: cell-based, rat
cortical neurons = assay: Neuronal apoptosis with bicuculline-enhanced activation of synaptic NMDA receptors; type: cell-based, rat; conditions: bicuculline 50 μM, 4 h; for neuronal apoptosis on co-application with bicuculline: apoptosis quantified 20 h after
Description: The function of the NR2A and NR2B synaptic receptor subpopulations in mediating neuronal survival or death is also illustrated herein, as follows. To increase activation of synaptic NMDA receptors by synaptically released glutamate, neurons were incubated with the GABAA receptor antagonist bicuculline (50 μM, 4 h). Bicuculline increases neuronal excitation by blocking the GABAA receptor-mediated synaptic inhibition and thereby enhances action potential-dependent synchronized release of glutamate from presynaptic terminals. Neuronal apoptosis was quantified 20 h following the treatments. […] The NR2A blockade-induced neuronal apoptosis was demonstrably mediated by synaptic NR2B-containing receptors, as it was prevented in the presence of Ro 25-6981 (p<0.01; FIG. 3B).
Dissociated cultures of cortical neurons were prepared from 18-day Sprague-Dawley rat embryos as described previously (Mielke et al., 2005). To obtain mixed cortical cultures enriched with neurons, uridine (10 μM) and 5-Fluor-2′-deoxyuridine (10 μM) were added to the culture medium at 3 DIV and maintained for 48 h, to inhibit non-neuronal cell proliferation, before the cultures were shifted back to the normal culture medium. Mature neurons (11-14 DIV) were used for experiments. To induce neuronal apoptosis, cortical cultures were stimulated with NMDA (50 μM) and glycine (10 μM) for 20 min, or STS (100 nM) for 1 h in Mg2+-free extracellular solution (ECS) containing (mM): 25 HEPES acid, 140 NaCl, 33 glucose, 5.4 KCl and 1.3 CaCl2, with pH 7.35 and osmolarity 320-330 mOsm. […]
To visualize injured neurons, Hoechst-33342 (10 μg/ml) was added to the culture medium 20 h after treatments and incubated for 45 min at 37 °C. Images were taken with a Leica DMIRE2 fluorescence microscope. Quantitative assessment of neuronal apoptosis was performed 20 h following treatments using a Cell Death Detection ELISAPLUS Kit (Roche Applied Science). Absorbance readings were determined using a spectrophotometric microplate reader. […] Data are expressed as the difference in apoptosis relative to control and are expressed as a percentage.

[2] = system: middle cerebral artery occlusion (MCAo); assay: MCAo focal ischemic stroke model, post-ischemic treatment; type: in vivo, rat; conditions: for effect of co-administration on the glycine effect (infarct volume reduction): co-administered with glycine 800 mg/kg 4.5 h after stroke onset
Source text: In some clinical settings, it is desirable to implement therapy after the onset of neuronal injury, such as stroke or other ischemic events.
(§1) Transient cerebral focal ischemia was produced by middle cerebral artery occlusion (MCAo) as described (Aarts et al., 2002; Bederson et al., 1986; Longa et al., 1989). Briefly, male Sprague-Dawley rats (Charles River Laboratories) weighing ˜300 g were anesthetized and MCAo was achieved by introducing a 3-0 monofilament suture into the MCA via the internal carotid artery. Body temperature was maintained at 37.0±0.5° C., and blood pressure and blood gases were monitored during the experiments. Animals were sacrificed 24 h following MCAo onset. Cerebral infarction was analyzed using brain sections stained with hematoxylin and eosin (H & E) or 2,3,5-triphenyltetrazolium chloride (TTC). 10 min before the animals were sacrificed, two tests, the postural reflex test to examine upper body posture (Bederson et al., 1986) and the forelimb placing test to examine sensorimotor integration in forelimb placing responses to visual, tactile, and proprioceptive stimuli (De Ryck et al., 1989), were performed to grade neurological function on a scale of 0 to 12 (0=normal, 12=worst). In the pretreatment study, a single bolus of drugs (NR2A-specific antagonist NVP-AAM077 (2.4 mg/kg) or NR2B specific antagonist Ro 25-6981 (6 mg/kg) or vehicle (saline)) was infused intravenously 30 min before a 1-h MCAo. For post-treatment experiments, animals were subjected to a 1.5-h MCAo and drug treatments (glycine, 800 mg/kg; NVP-AAM077 and Ro 25-6981 at the same doses as in the pretreatment study) were then given via intraperitoneal injection (i.p.) 3 h after reperfusion (4.5 h after the onset of MCAo).
The activating effect on NR2A-containing receptors was mimicked with the application of the NMDA receptor co-agonist glycine in the presence of an […] NR2B antagonist. Glycine by itself potentiates the function of NMDA receptors that are activated by endogenously released glutamate from presynaptic terminals both in vitro and in vivo (Johnson et al., 1987; Lu et al., 2001; De et al., 2000).

[3] = system: middle cerebral artery occlusion (MCAo); assay: MCAo focal ischemic stroke model, pretreatment; type: in vivo, rat; conditions: for neurological function (behavioral tests) / infarct area: i.v. 30 min before 1-h MCAo; for neurological function (behavioral tests): 24 h after onset; for infarct area: NVP-AAM077 2.4 mg/kg, Ro 25-6981 6 mg/kg, 24 h
Description: This aspect of the invention was also illustrated in vivo using a rat focal ischemic stroke model—middle cerebral artery occlusion (MCAo) (Aarts et al., 2002; Bederson et al., 1986). We first infused NVP-AAM077 (2.4 mg/kg), Ro 25-6981 (6 mg/kg (Loschmann et. al., 2004)) or vehicle (saline) intravenously in the rats 30 min prior to stroke onset. The animals were then subjected to a 1-h transient ischemic stroke induced by MCAo. This relatively short duration of ischemia was chosen to unmask the potential neuroprotective effects mediated by NR2A-containing receptors activated during the stroke challenge. Neurological score and cerebral infarction were examined 24 h after the MCAo onset. […] Together, these observations indicate that both NR2A- and NR2B-containing NMDA receptor subtypes are activated during stroke, exerting opposing effects on ischemic brain damage.
as §1

SMILES	percentage blockade of NMDA-induced currents, applied alone [1]	reduction in the percentage of NMDA current inhibition by Ro25-6981 following NVP-AAM077 blockade ([1]; alone vs after NVP-AAM077 0.4 μM) [%]	percentage blockade of NMDA-induced currents, applied after blockade by the other antagonist [1]	effect on slow NMDA receptor-mediated component of mEPSCs (synaptic NMDA receptors; -60 mV, zero added Mg2+, APV 50 μM, Ro 25-6981 0.5 μM)	NR2B-containing receptor-mediated (Ro 25-6981-sensitive) component of synaptic NMDA currents (synaptic NMDA receptors; Ro 25-6981 0.5 μM, n=5) [%]	effect on NR2A blockade (NVP-AAM077 + bicuculline)-induced neuronal apoptosis (cortical neurons; plus NVP-AAM077)	neuronal apoptosis on co-application with bicuculline (cortical neurons)	effect of co-administration on the glycine effect (infarct volume reduction) [2]	neuroprotection / total infarct volume compared with MCAo alone ([2]; given 3 h after 1.5-h MCAo (4.5 h after stroke onset), MK801 1 mg/Kg, glycine 800 mg/Kg, Ro 25-6981 6 mg/Kg)	decrease of total infarct volume compared with saline-treated animals ([3]; 6 mg/kg i.v. 30 min before 1-h MCAo, 24 h after MCAo onset) [%]	neurological function (behavioral tests) [3]	infarct area [3]	effect on the remainder (non-NR2B) of the synaptic NMDA currents (synaptic NMDA receptors; NVP-AAM077 0.4 μM, n=5)	effect of co-administration on the glycine effect (infarct volume reduction) ([2]; listed as NVP-AAM066)	increase in total infarct volume compared with saline-treated animals ([3]; 2.4 mg/kg i.v. 30 min before 1-h MCAo, 24 h after MCAo onset) [%]
C[C@@H](CN1CCC(Cc2ccccc2)CC1)[C@@H](O)c1ccc(O)cc1 (relative stereo) [Ro 25-6981, [R-(R*,S*)]-α-(4-Hydroxyphenyl)-β-methyl-4-(phenylmethyl)-1-piperidinepropanol]	34.6%±1.8%	5.6	29.0%±3.3%	significantly reduced	32.4±3.6	prevented	did not cause apoptotic cell death	resistant	did not provide any noticeable neuroprotection; also recorded: ineffectiveness	67.8±4.3	significant protective effect	decreased	–	–	–
C[C@H](NC(c1cccc2[nH]c(=O)c(=O)[nH]c12)P(=O)(O)O)c1ccc(Br)cc1 (stereo partly drawn) [NVP-AAM077]	42.9%±5.9%	–	43.4%±12.4%	–	–	–	significantly increased neuronal apoptosis	abolished; also recorded: prevented	–	–	trend toward poorer neurological function	increased	largely eliminated	abolished the neuroprotection offered by glycine	67.0±17.9
